Values joined by “and” are separate entries in the source; they are usually repeats but may differ in a detail not shown here. Equal entries are not always repeated. Inconclusive results and toxic doses are left out. How the source made its calls: active means survival T/C of 150% or more; inactive means T/C below 125% in these data.
System: BDF1 mice, B16 melanoma ip, median survival T/C
Experiment: NCI In Vivo Anticancer Drug Screen. Data for tumor model B16 Melanoma (intraperitoneal) in B6D2F1 (BDF1) mice
Conditions: endpoint: median survival time, higher = longer survival
Outline: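 Vehicle-treated animals serve as the reference (C); treated animals (T) are scored for survival or tumor size after tumor transplantation.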

[1] = dose: 25.0 mg/kg/injection, schedule: Q01DX009 (ip), vehicle: Klucel (hydroxypropylcellulose) (HPC)
[2] = dose: 50.0 mg/kg/injection, schedule: Q01DX009 (ip), vehicle: Klucel (hydroxypropylcellulose) (HPC)
[3] = dose: 100.0 mg/kg/injection, schedule: Q01DX009 (ip), vehicle: Klucel (hydroxypropylcellulose) (HPC)

Measured: T/C

CC(=O)O[C@@H]1[C@@H](O)C2=C3[C@]4(C)[C@@H]1C(C)(C)C(=O)C[C@@H]4[C@]3(O)[C@H](OC(C)=O)[C@@]1(C[C@@H]1C)C2=O
inactive: dose: 1.0 mg/kg/injection, schedule: Q01DX009 (ip), vehicle: saline with Tween-80 115 % of control | dose: 2.0 mg/kg/injection, schedule: Q01DX009 (ip), vehicle: saline with Tween-80 109 % of control | dose: 3.12 mg/kg/injection, schedule: Q01DX009 (ip), vehicle: saline with Tween-80 97 % of control and 101 % of control | dose: 4.0 mg/kg/injection, schedule: Q01DX009 (ip), vehicle: saline with Tween-80 102 % of control | dose: 6.25 mg/kg/injection, schedule: Q01DX009 (ip), vehicle: saline with Tween-80 104 % of control | dose: 8.0 mg/kg/injection, schedule: Q01DX009 (ip), vehicle: saline with Tween-80 114 % of control | dose: 12.5 mg/kg/injection, schedule: Q01DX009 (ip), vehicle: saline with Tween-80 119 % of control | dose: 25.0 mg/kg/injection, schedule: Q01DX009 (ip), vehicle: saline with Tween-80 104 % of control | dose: 50.0 mg/kg/injection, schedule: Q01DX009 (ip), vehicle: saline with Tween-80 101 % of control

CCO/C=C1\SC(=S)N(c2cccc(OC)c2)C1=O
inactive: dose: 12.5 mg/kg/injection, schedule: Q01DX009 (ip), vehicle: Klucel (hydroxypropylcellulose) (HPC) 93 % of control and 98 % of control | [1] 98 % of control and 107 % of control | dose: 35.0 mg/kg/injection, schedule: Q01DX009 (ip), vehicle: saline 98 % of control | [2] 98 % of control | dose: 50.0 mg/kg/injection, schedule: Q01DX009 (ip), vehicle: saline 100 % of control | dose: 75.0 mg/kg/injection, schedule: Q01DX009 (ip), vehicle: saline 91 % of control | [3] 100 % of control and 102 % of control | dose: 265.0 mg/kg/injection, schedule: Q04DX003 (ip), vehicle: Klucel (hydroxypropylcellulose) (HPC) 101 % of control | dose: 400.0 mg/kg/injection, schedule: Q04DX003 (ip), vehicle: Klucel (hydroxypropylcellulose) (HPC) 97 % of control

CCOC(=O)C(OCC)P(=O)(OCC)OCC (stereo not given)
inactive: [1] 95 % of control | [2] 95 % of control | [3] 107 % of control | dose: 200.0 mg/kg/injection, schedule: Q01DX009 (ip), vehicle: Klucel (hydroxypropylcellulose) (HPC) 102 % of control | dose: 400.0 mg/kg/injection, schedule: Q01DX009 (ip), vehicle: Klucel (hydroxypropylcellulose) (HPC) 100 % of control

CCC1(O)CC2CN(CCc3c([nH]c4ccccc34)C(C(=O)OC)(c3cc4c(cc3OC)N(C)C3C(O)(C(=O)NCCO)C(O)C5(CC)C=CCN6CCC43C65)C2)C1 (stereo not given)
active: dose: 0.2 mg/kg/injection, schedule: Q01DX009 (ip), vehicle: saline 164 % of control | dose: 0.36 mg/kg/injection, schedule: Q01DX009 (ip), vehicle: water 162 % of control | dose: 0.4 mg/kg/injection, schedule: Q01DX009 (ip), vehicle: saline 191 % of control | dose: 0.6 mg/kg/injection, schedule: Q01DX009 (ip), vehicle: water 161 % of control | dose: 0.8 mg/kg/injection, schedule: Q01DX009 (ip), vehicle: saline 218 % of control | dose: 1.0 mg/kg/injection, schedule: Q04DX003 (ip), vehicle: saline 155 % of control | dose: 1.44 mg/kg/injection, schedule: Q04DX003 (ip), vehicle: water 155 % of control and 179 % of control | dose: 1.67 mg/kg/injection, schedule: Q04DX003 (ip), vehicle: saline 161 % of control | dose: 2.4 mg/kg/injection, schedule: Q04DX003 (ip), vehicle: water 155 % of control and 206 % of control | dose: 648.0 micrograms/kg/injection, schedule: Q04DX003 (ip), vehicle: saline 163 % of control | dose: 1080.0 micrograms/kg/injection, schedule: Q04DX003 (ip), vehicle: saline 167 % of control | dose: 1800.0 micrograms/kg/injection, schedule: Q04DX003 (ip), vehicle: saline 156 % of control and 182 % of control | dose: 3000.0 micrograms/kg/injection, schedule: Q04DX003 (ip), vehicle: saline 166 % of control and 179 % of control
inactive: dose: 0.22 mg/kg/injection, schedule: Q01DX009 (ip), vehicle: water 121 % of control | dose: 1.04 mg/kg/injection, schedule: Q01DX001 (ip), vehicle: water 121 % of control | dose: 2.9 mg/kg/injection, schedule: Q01DX001 (ip), vehicle: water 122 % of control | dose: 4.0 mg/kg/injection, schedule: Q04DX003 (ip), vehicle: water 87 % of control

Reference: PubChem BioAssay AID192 (DTP/NCI, 2004)
